{"source": "patent US7989420B2", "about": "“Smooth muscle relaxation” (New York Medical College, priority 2006, dated 2011)", "key": {"[1]": {"tested_on": "bovine pulmonary arteries (BPA)", "test": "Protoporphyrin IX-associated tissue fluorescence in organ cultured BPA rings", "format": "cell-based", "settings": "for BPA fluorescence: 100 μM ALA without or with 100 μM deferoxamine", "method": "Organoid Culture Isolated Arteries for Heme Modulation. Intralobar BPA were isolated from slaughterhouse-derived bovine calf lungs, cleaned from surrounding tissue, and placed in 37° C. Dulbecco's Modified Eagle Medium (DMEM) containing 10% fetal bovine serum, penicillin, streptomycin, and fungizone (complete media). The arteries were isolated and cut into rings ˜2 mm in diameter and width, and the endothelium was removed by gentle rubbing of the lumen. Various compounds (i.e. ALA, FeSO4(Fe), deferoxamine) were added as described in the Results to various experimental groups, and these arteries were organ cultured overnight for 24 h in complete media in a 37° C.-5% CO2 incubator. Preliminary experiments on the time course for detection protoporphyrin IX accumulation and the effects of organ culture with doses of ALA in the 10-100 μM concentration range on contractile function, and minimizing the duration of organ culture were considerations that contributed to selecting the 24 h culture period used in this study.\nDetermination Changes in Protoporphyrin 1× and Heme Levels. Methods for the detection of protoporphyrin IX tissue fluorescence developed for the detection in cancerous cells with tissue depths of up to several millimeters (27) were adapted for detecting changes in the endogenous levels of protoporphyrin IX in BPA rings which were organ cultured with ALA. When excited with light in the regions of 505 and 540 nm, protoporphyrin IX has an emission in the region of 635 nm. […] Increases in protoporphyrin IX were measured using an excitation wavelength of 528±20 nm and emission of 620±40 nm in intact vessels. Ring segments of approximately equal size (˜4 mm in diameter and length) were centered on the bottom of the ˜6 mm diameter wells of a 96 well microplate with 200 μl of Krebs containing with 10 mM Hepes buffer (pH 7.4), and the fluorescence was measured from the bottom surface of the plate using BIOTEK fluorescent microplate reader (Model FLx800i). Data are reported in the arbitrary fluorescence units measured (AU), after subtraction of the low levels of background fluorescence observed in the absence of BPA."}, "[2]": {"tested_on": "bovine pulmonary arteries (BPA)", "test": "Heme content of BPA homogenates (QuantiChrom heme assay)", "format": "cell-based", "settings": "organ culture with 100 μM ALA and/or 100 μM Fe", "method": "Heme was quantified in BPA homogenates using a QuantiChrom heme assay kit purchased from BioAssay Systems, and changes in absorbance were measured in a BIOTEK scanning microplate spectrophotometer. Briefly, segments were homogenized in 20 mM MOPS+sucrose buffer and diluted to approximately 5 mg protein/ml. Homogenates were centrifuged at 2000×g for 5 min, and 50 μl of supernatant obtained were assayed for their heme content based on the manufacture's instructions, employing measurements of changes in absorbance at 400 nm. The protein content of the supernatant was measured with Biorad protein assay kit, and tissue heme levels were reported as nanomoles/mg protein."}}, "data": [{"smiles": "NCC(=O)CCC(=O)O", "note": "[ALA, δ-aminolevulinic acid]", "values": [{"measurement": "fluorescence potentially originating from protoporphyrin IX", "setting": "[1]; 10 μM ALA, 24 h organ culture", "result": "did not cause a detectable increase in fluorescence"}, {"measurement": "increase in fluorescence over the background fluorescence of BPA", "setting": "[1]; 50 μM and 100 μM ALA, 24 h organ culture", "result": "up to 2 fold"}, {"measurement": "BPA fluorescence", "setting": "[1]; after 8 h of organ culture", "result": "1015±79", "unit": "AU"}, {"measurement": "BPA fluorescence", "setting": "[1]; after 24 h of organ culture", "result": "1658±122", "unit": "AU"}, {"measurement": "concentration of protoporphyrin IX solution producing similar fluorescence", "setting": "[1]; increase in BPA fluorescence caused by 100 μM ALA", "result": "~3", "unit": "µM"}, {"measurement": "tissue fluorescence potentially originating from protoporphyrin IX", "setting": "[1]; organ culture with 100 μM ALA, after 16 and 24 h of incubation", "result": "increase in tissue fluorescence"}, {"measurement": "BPA heme levels", "setting": "[2]", "result": "did not reach statistical significance"}]}]}
